Tests used:
Format in all cases: toxicity, cell-based
HEK-293T = assay: Incucyte cell viability with HEK293T; conditions: human, 10 µM, compound concentration 10 uM
U2OS = assay: Incucyte cell viability with U2OS; conditions: human, 10 µM, compound concentration 10 uM
Fibroblast = assay: Incucyte cell viability with human fibroblast; conditions: 10 µM, compound concentration 10 uM
[1] = 0 h, replicate number 1, timepoint 0 hours
[2] = 0 h, replicate number 2, timepoint 0 hours
[3] = 6 h, replicate number 1, timepoint 6 hours
[4] = 6 h, replicate number 2, timepoint 6 hours
[5] = 12 h, replicate number 1, timepoint 12 hours
[6] = 12 h, replicate number 2, timepoint 12 hours
[7] = 18 h, replicate number 1, timepoint 18 hours
[8] = 18 h, replicate number 2, timepoint 18 hours
[9] = 24 h, replicate number 1, timepoint 24 hours
[10] = 24 h, replicate number 2, timepoint 24 hours

Measured: Growth Rate
Note: filed as whole numbers so only -1 and 0 and 1 occur.

CC(C)(Sc1ccc(CCN(CCCCC2CCCCC2)C(=O)NC2CCCCC2)cc1)C(=O)O [GW7647]
1: HEK-293T; [1] | HEK-293T; [4] | HEK-293T; [6] | HEK-293T; [8] | U2OS; [4] | U2OS; [5] | U2OS; [7] | U2OS; [9] | Fibroblast; [7] | Fibroblast; [10]
0: HEK-293T; [2] | HEK-293T; [3] | HEK-293T; [5] | HEK-293T; [7] | HEK-293T; [9] | U2OS; [1] | Fibroblast; [1] | Fibroblast; [3] | Fibroblast; [5] | Fibroblast; [9]

Cc1oncc1C(=O)Nc1ccc(C(F)(F)F)cc1 [LEFLUNOMIDE]
0: HEK-293T; [2] | HEK-293T; [3] | HEK-293T; [8] | HEK-293T; [9] | U2OS; [2] | Fibroblast; [1] | Fibroblast; [4] | Fibroblast; [6] | Fibroblast; [8] | Fibroblast; [10]
1: HEK-293T; [1] | HEK-293T; [4] | HEK-293T; [5] | HEK-293T; [7] | HEK-293T; [10] | U2OS; [4] | U2OS; [5] | U2OS; [7] | U2OS; [9] | Fibroblast; [3] | Fibroblast; [5] | Fibroblast; [7] | Fibroblast; [9]

N[C@@H](Cc1cc(I)c(Oc2ccc(O)c(I)c2)c(I)c1)C(=O)O [LIOTHYRONINE]
1: HEK-293T; [3] | HEK-293T; [5] | HEK-293T; [7] | HEK-293T; [9] | U2OS; [4] | U2OS; [5] | U2OS; [7] | U2OS; [9] | Fibroblast; [8] | Fibroblast; [10]
0: HEK-293T; [1] | HEK-293T; [6] | HEK-293T; [8] | HEK-293T; [10] | U2OS; [1] | Fibroblast; [1] | Fibroblast; [3] | Fibroblast; [5] | Fibroblast; [7] | Fibroblast; [9]

O=C1O[C@]2(CC[C@H](C(=O)Nc3ccn(-c4ccccc4F)n3)CC2)c2cnccc21 [MK-0557]
1: U2OS; [4] | U2OS; [5] | U2OS; [7] | U2OS; [10] | Fibroblast; [6] | Fibroblast; [8] | Fibroblast; [10]
0: HEK-293T; [1] | HEK-293T; [3] | HEK-293T; [5] | HEK-293T; [7] | HEK-293T; [9] | U2OS; [2] | U2OS; [9] | Fibroblast; [1] | Fibroblast; [3] | Fibroblast; [5] | Fibroblast; [7] | Fibroblast; [9]

C[C@@H]1CN(c2cc(-c3n[nH]c4ccc(OC5(C)CC5)cc34)ncn2)C[C@H](C)O1 [MLi-2]
1: HEK-293T; [2] | HEK-293T; [5] | HEK-293T; [7] | HEK-293T; [9] | U2OS; [3] | U2OS; [5] | U2OS; [7] | U2OS; [9] | Fibroblast; [3] | Fibroblast; [5] | Fibroblast; [7]
0: HEK-293T; [1] | HEK-293T; [3] | HEK-293T; [10] | U2OS; [2] | Fibroblast; [1] | Fibroblast; [4] | Fibroblast; [6] | Fibroblast; [8] | Fibroblast; [9]

O=S(=O)(NC1CCC(c2cc(F)ccc2F)(S(=O)(=O)c2ccc(Cl)cc2)CC1)C(F)(F)F (configuration not stated) [MRK-560]
0: HEK-293T; [1] | HEK-293T; [5] | HEK-293T; [7] | HEK-293T; [9] | U2OS; [4] | U2OS; [7] | U2OS; [10] | Fibroblast; [1] | Fibroblast; [6] | Fibroblast; [10]
1: HEK-293T; [2] | HEK-293T; [3] | U2OS; [1] | U2OS; [3] | U2OS; [5] | U2OS; [9] | Fibroblast; [4] | Fibroblast; [5] | Fibroblast; [7] | Fibroblast; [9]

CC(=O)c1c(NS(C)(=O)=O)c2cc(-c3ccc(Cl)cc3)c(-c3ccc(Cl)cc3Cl)nc2n(C)c1=O [MRL-CB1-NC]
0: HEK-293T; [2] | HEK-293T; [3] | HEK-293T; [5] | HEK-293T; [7] | HEK-293T; [9] | U2OS; [1] | Fibroblast; [1] | Fibroblast; [3] | Fibroblast; [5] | Fibroblast; [7] | Fibroblast; [9]
1: HEK-293T; [1] | HEK-293T; [6] | U2OS; [2] | U2OS; [4] | U2OS; [5] | U2OS; [7] | U2OS; [9]

Cc1ccc(-c2cnc([C@@]3(O)CC[C@H](C(=O)O)C(C)(C)C3)s2)cc1Nc1cccc(C(F)(F)F)n1 [MRL-SYKi-NC]
0: HEK-293T; [1] | HEK-293T; [3] | HEK-293T; [6] | HEK-293T; [10] | U2OS; [1] | U2OS; [3] | U2OS; [5] | U2OS; [7] | U2OS; [9] | Fibroblast; [2] | Fibroblast; [3] | Fibroblast; [5] | Fibroblast; [7] | Fibroblast; [9]
1: HEK-293T; [2] | HEK-293T; [5] | HEK-293T; [7] | HEK-293T; [9] | U2OS; [6] | U2OS; [8] | U2OS; [10]

CO[C@@H](C)c1c(Nc2ccc([C@@H](N(C)C(=O)C3CCS(=O)(=O)CC3)C(F)(F)F)cc2)cnc2cc(Cl)nn12 [NVS-MALT1-C]
1: HEK-293T; [1] | U2OS; [2] | U2OS; [5] | U2OS; [9] | Fibroblast; [5] | Fibroblast; [7] | Fibroblast; [9]
0: HEK-293T; [3] | HEK-293T; [5] | HEK-293T; [7] | HEK-293T; [9] | U2OS; [1] | U2OS; [3] | U2OS; [7] | U2OS; [10] | Fibroblast; [1] | Fibroblast; [3] | Fibroblast; [6]

OCCn1cc(-c2cnc3nnn(Cc4ccc5ncccc5c4)c3n2)cn1 [PF-04217903]
0: HEK-293T; [3] | U2OS; [2] | U2OS; [4] | U2OS; [6] | U2OS; [8] | U2OS; [10] | Fibroblast; [1] | Fibroblast; [4] | Fibroblast; [6] | Fibroblast; [8]
1: HEK-293T; [1] | HEK-293T; [5] | HEK-293T; [7] | HEK-293T; [9] | U2OS; [3] | U2OS; [5] | U2OS; [7] | U2OS; [9] | Fibroblast; [3] | Fibroblast; [7] | Fibroblast; [9]

CCC[C@H](Oc1cc(C)c(-n2cc(C(F)(F)F)cn2)c(C)c1)c1ccc(C(=O)NCCC(=O)O)cc1 [PF-06291874]
1: HEK-293T; [1] | U2OS; [5] | U2OS; [8] | U2OS; [9] | Fibroblast; [3] | Fibroblast; [9]
0: HEK-293T; [2] | HEK-293T; [3] | HEK-293T; [5] | HEK-293T; [7] | HEK-293T; [9] | U2OS; [4] | U2OS; [7] | Fibroblast; [1] | Fibroblast; [5] | Fibroblast; [7]

CNC[C@H](O)c1cccc(O)c1 [PHENYLEPHRINE]
0: HEK-293T; [1] | HEK-293T; [3] | HEK-293T; [5] | HEK-293T; [7] | HEK-293T; [10] | U2OS; [2] | U2OS; [4] | Fibroblast; [2]
1: HEK-293T; [9] | U2OS; [5] | U2OS; [7] | U2OS; [9] | Fibroblast; [1] | Fibroblast; [5] | Fibroblast; [8]

N#Cc1c[nH]c2c(C(=O)N3CCN(CCc4ccc(F)cc4)CC3)cccc12 [PRUVANSERIN]
0: HEK-293T; [2] | HEK-293T; [3] | HEK-293T; [5] | HEK-293T; [7] | HEK-293T; [9] | U2OS; [4] | U2OS; [6] | U2OS; [7] | U2OS; [9] | Fibroblast; [1] | Fibroblast; [3] | Fibroblast; [5] | Fibroblast; [7] | Fibroblast; [9]
1: U2OS; [1] | U2OS; [5] | U2OS; [8]

CN(C)C(=O)c1cc2cnc(Nc3ccc(N4CCNCC4)cn3)nc2n1C1CCCC1 [RIBOCICLIB]
0: HEK-293T; [1] | HEK-293T; [4] | HEK-293T; [6] | HEK-293T; [8] | HEK-293T; [10] | U2OS; [1] | U2OS; [3] | U2OS; [5] | U2OS; [7] | U2OS; [9] | Fibroblast; [1] | Fibroblast; [4] | Fibroblast; [6]
1: HEK-293T; [2] | HEK-293T; [3] | HEK-293T; [7] | HEK-293T; [9] | U2OS; [4] | U2OS; [6] | U2OS; [8] | U2OS; [10] | Fibroblast; [8] | Fibroblast; [9]

CC[C@H](CO)Nc1nc(NCc2ccccc2)c2ncn(C(C)C)c2n1 [SELICICLIB]
0: HEK-293T; [1] | HEK-293T; [4] | HEK-293T; [6] | HEK-293T; [9] | U2OS; [2] | U2OS; [3] | U2OS; [5] | U2OS; [7] | U2OS; [9] | Fibroblast; [2] | Fibroblast; [3] | Fibroblast; [5] | Fibroblast; [7] | Fibroblast; [9]
1: HEK-293T; [2] | HEK-293T; [7] | U2OS; [1] | U2OS; [6]

O=C1NCN(c2ccccc2)C12CCN(CC1COc3ccccc3O1)CC2 (configuration not stated) [SPIROXATRINE]
1: HEK-293T; [1] | U2OS; [4] | U2OS; [5] | U2OS; [7] | U2OS; [9] | Fibroblast; [2] | Fibroblast; [3] | Fibroblast; [5] | Fibroblast; [9]
0: HEK-293T; [2] | HEK-293T; [3] | HEK-293T; [5] | HEK-293T; [7] | HEK-293T; [9] | U2OS; [2] | Fibroblast; [1] | Fibroblast; [4] | Fibroblast; [6] | Fibroblast; [7] | Fibroblast; [10]

CC1(C)CCC(C)(C)c2cc(NC(=O)c3ccc(C(=O)O)cc3)ccc21 [TAMIBAROTENE]
1: HEK-293T; [3] | HEK-293T; [5] | HEK-293T; [7] | HEK-293T; [9] | U2OS; [6] | U2OS; [8] | U2OS; [9] | Fibroblast; [6] | Fibroblast; [9]
0: HEK-293T; [1] | U2OS; [1] | U2OS; [5] | U2OS; [7] | Fibroblast; [1] | Fibroblast; [3] | Fibroblast; [5] | Fibroblast; [7]

CC(C)OC(=O)C1=CN(C(=O)c2ccc(F)c(F)c2)CC(C)(C)c2c1[nH]c1ccccc21 [TUROFEXORATE ISOPROPYL]
1: U2OS; [8] | U2OS; [10]
0: HEK-293T; [1] | HEK-293T; [3] | HEK-293T; [5] | HEK-293T; [7] | HEK-293T; [9] | U2OS; [1] | U2OS; [5] | U2OS; [7] | U2OS; [9] | Fibroblast; [1] | Fibroblast; [3] | Fibroblast; [5] | Fibroblast; [7] | Fibroblast; [9]
